Measured values reported in ChEMBL document CHEMBL1201862, “PubChem BioAssay data set” (2004).
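Protocol summary: plate cells (96-well), add compound at 5 concentrations, incubate 48 h, interpolate endpoints linearly. GI50 marks 50% less growth.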 The source made the active and inactive calls. Rule as the data show it: active = GI50 up to about 1.1 µM and inactive = higher.

Experiments:
Test in all cases: inhibition of tumour cell growth, NCI panel, 48 h
[1] = test system: HCT-116
[2] = test system: HOP-92
[3] = test system: IGROV-1
[4] = test system: K562
[5] = test system: KM12
[6] = test system: MOLT-4
[7] = test system: NCI-H23
[8] = test system: NCI-H522
[9] = test system: SK-OV-3
[10] = test system: SNB-19
[11] = test system: COLO 205
[12] = test system: RPMI-8226
[13] = test system: UACC-257

SMILES	GI50 [1]	GI50 [2]	GI50 [3]	GI50 [4]	GI50 [5]	GI50 [6]	GI50 [7]	GI50 [8]	GI50 [9]	GI50 [10]	GI50 [11]	GI50 [12]	GI50 [13]
O=C1C(O)=C(CN(CCCl)CCCl)C(=O)c2ccccc21	34.4 µM (inactive)	56.5 µM (inactive)	20.5 µM (inactive)	45.6 µM (inactive)	56.5 µM (inactive)	29.3 µM (inactive)	68.9 µM (inactive)	66.8 µM (inactive)	> 100 µM (inactive)	50 µM (inactive)			
CCCCN(C)CC(C(C)=O)C(c1ccccc1)c1c(O)c2ccccc2oc1=O (stereo not drawn)	> 100 µM (inactive)		> 100 µM (inactive)	> 100 µM (inactive)	> 100 µM (inactive)	> 100 µM (inactive)	62.2 µM (inactive)	> 100 µM (inactive)	> 100 µM (inactive)	> 100 µM (inactive)	> 100 µM (inactive)	> 100 µM (inactive)	> 100 µM (inactive)
O=C1c2c(nc3ccccc3c2-c2ccccc2)CN1Nc1ccccc1	> 100 µM (inactive)	> 100 µM (inactive)	> 100 µM (inactive)	> 100 µM (inactive)	> 100 µM (inactive)	> 100 µM (inactive)		> 100 µM (inactive)	> 100 µM (inactive)		> 100 µM (inactive)	> 100 µM (inactive)	> 100 µM (inactive)
COC(=O)C1=C(c2ccc3c(c2)OCO3)OC(c2ccc3c(c2)OCO3)C1 (stereo not drawn)	> 100 µM (inactive)	> 100 µM (inactive)	> 100 µM (inactive)	> 100 µM (inactive)	65.2 µM (inactive)	16.9 µM (inactive)	> 100 µM (inactive)		> 100 µM (inactive)		66.1 µM (inactive)	> 100 µM (inactive)	69.7 µM (inactive)
O=C1c2ccccc2NC1(c1ccccc1)c1c(-c2ccccc2)[nH]c2ccccc12 (stereo not drawn)	7.28 µM (inactive)	5.35 µM (inactive)	4.41 µM (inactive)	8.32 µM (inactive)	10.5 µM (inactive)	2.91 µM (inactive)	21.4 µM (inactive)		37.5 µM (inactive)	37.3 µM (inactive)	6.12 µM (inactive)	3.88 µM (inactive)	44 µM (inactive)
NCCCN(CCCN)CCCNCc1c2ccccc2c(CNCCCN(CCCN)CCCN)c2ccccc12	14.9 µM (inactive)	24.8 µM (inactive)	11.1 µM (inactive)	9.42 µM (inactive)	4.37 µM (inactive)	26.1 µM (inactive)	22.5 µM (inactive)	11.6 µM (inactive)		14.6 µM (inactive)	8.09 µM (inactive)	3.24 µM (inactive)	13.7 µM (inactive)
COC/C=C\COC	> 100 µM (inactive)	> 100 µM (inactive)	> 100 µM (inactive)	> 100 µM (inactive)	> 100 µM (inactive)	> 100 µM (inactive)			> 100 µM (inactive)	> 100 µM (inactive)	> 100 µM (inactive)	> 100 µM (inactive)	> 100 µM (inactive)
CCCCCCCCCc1cc(=O)c2ccc(O)cc2o1	38.5 µM (inactive)	16.4 µM (inactive)	41.2 µM (inactive)	14.5 µM (inactive)	46.9 µM (inactive)	23.6 µM (inactive)	63.5 µM (inactive)	31.4 µM (inactive)	60.3 µM (inactive)	44.6 µM (inactive)	51.4 µM (inactive)	17.9 µM (inactive)	65.3 µM (inactive)
c1ccc2c(c1)C1CCCCCC21N1CCOCC1 (stereo not drawn)	54.2 µM (inactive)		> 100 µM (inactive)	45.1 µM (inactive)	> 100 µM (inactive)	32.6 µM (inactive)	> 100 µM (inactive)	52.4 µM (inactive)	> 100 µM (inactive)	29.7 µM (inactive)	> 100 µM (inactive)		> 100 µM (inactive)
COc1cc(C2c3cc4c(cc3[C@@H](OCCN(C)C)C3COC(=O)[C@H]23)OCO4)cc(OC)c1O (stereo partly drawn)	1.04 µM (active)	0.196 µM (active)	1.52 µM (inactive)	0.562 µM (active)	0.723 µM (active)	0.0165 µM (active)	0.237 µM (active)	0.111 µM (active)	0.163 µM (active)	0.207 µM (active)	2.85 µM (inactive)	0.0472 µM (active)	1.68 µM (inactive)
Cn1c(=O)nc2n(-c3cc(C(F)(F)F)cc(C(F)(F)F)c3)c3ccccc3nc-2c1=O	> 100 µM (inactive)	45.1 µM (inactive)	> 100 µM (inactive)	> 100 µM (inactive)	> 100 µM (inactive)	> 100 µM (inactive)	> 100 µM (inactive)		> 100 µM (inactive)	49 µM (inactive)	> 100 µM (inactive)	> 100 µM (inactive)	> 100 µM (inactive)
